# Experimental data reported in US8933230B2, “Phosphorus-containing group-substituted quinoline, its preparation process, medical composition containing the compounds and application” (priority 2011, dated 2015).
# Experiments:
# Assay in all cases: KinomeScan kinase panel
# Format in all cases: binding
# [1] = target: T1, PIK3CA(Q546K) (Homo sapiens, UniProt P42336, Q546K)
# T1 construct: purchased DiscoveRx Corporation (KinomeScan)
# Summary of the method: (§1)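 Inhibitory effect at a 1000 nM single dose, determined in KinomeScan's 442-kinase panel.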
# [2] = target: T2, MAP3K1 (Homo sapiens, UniProt Q13233)
# T2 construct: purchased DiscoveRx Corporation (KinomeScan)
# Summary of the method: as §1
# [3] = target: T3, JAK3(JH1domain-catalytic) (Homo sapiens, UniProt P52333)
# T3 construct: JAK3(JH1domain-catalytic); purchased DiscoveRx Corporation (KinomeScan)
# Summary of the method: as §1
# [4] = target: T4, MKK7 (Homo sapiens, UniProt O14733)
# T4 construct: purchased DiscoveRx Corporation (KinomeScan)
# T4 sequence (O14733 whole entry): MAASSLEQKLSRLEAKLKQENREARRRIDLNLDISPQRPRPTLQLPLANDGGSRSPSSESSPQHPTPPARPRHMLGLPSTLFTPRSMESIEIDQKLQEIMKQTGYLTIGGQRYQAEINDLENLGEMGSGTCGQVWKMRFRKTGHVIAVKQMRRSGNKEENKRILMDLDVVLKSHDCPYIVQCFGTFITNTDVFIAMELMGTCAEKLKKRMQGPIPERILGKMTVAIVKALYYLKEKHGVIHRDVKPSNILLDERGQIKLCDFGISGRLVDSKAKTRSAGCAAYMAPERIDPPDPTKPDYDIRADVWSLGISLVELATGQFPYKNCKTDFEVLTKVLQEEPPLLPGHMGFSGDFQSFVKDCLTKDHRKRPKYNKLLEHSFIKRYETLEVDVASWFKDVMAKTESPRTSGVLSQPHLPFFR
# Summary of the method: as §1
# [5] = target: T5, PCTK3 (Homo sapiens, UniProt Q07002)
# T5 construct: purchased DiscoveRx Corporation (KinomeScan panel)
# Summary of the method: as §1
# [6] = target: T6, FGFR3(G697C) (Homo sapiens, UniProt P22607, G697C)
# T6 construct: purchased DiscoveRx Corporation (KinomeScan)
# Summary of the method: as §1
# [7] = target: T7, DRAK2 (Homo sapiens, UniProt O94768)
# T7 construct: purchased DiscoveRx Corporation (KinomeScan)
# T7 sequence (O94768 whole entry): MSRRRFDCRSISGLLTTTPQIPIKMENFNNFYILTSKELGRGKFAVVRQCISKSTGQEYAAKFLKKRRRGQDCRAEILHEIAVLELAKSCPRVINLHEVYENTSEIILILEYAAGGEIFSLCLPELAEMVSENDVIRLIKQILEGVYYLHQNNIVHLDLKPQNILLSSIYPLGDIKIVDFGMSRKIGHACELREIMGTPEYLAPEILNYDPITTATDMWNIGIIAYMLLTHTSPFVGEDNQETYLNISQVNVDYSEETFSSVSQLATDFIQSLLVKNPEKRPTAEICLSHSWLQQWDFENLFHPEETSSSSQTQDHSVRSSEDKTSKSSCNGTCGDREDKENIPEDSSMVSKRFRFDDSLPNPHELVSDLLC
# Summary of the method: as §1
# [8] = target: T8, YANK2 (Homo sapiens, UniProt Q9NY57)
# T8 construct: purchased DiscoveRx Corporation (KinomeScan service)
# T8 sequence (Q9NY57 whole entry): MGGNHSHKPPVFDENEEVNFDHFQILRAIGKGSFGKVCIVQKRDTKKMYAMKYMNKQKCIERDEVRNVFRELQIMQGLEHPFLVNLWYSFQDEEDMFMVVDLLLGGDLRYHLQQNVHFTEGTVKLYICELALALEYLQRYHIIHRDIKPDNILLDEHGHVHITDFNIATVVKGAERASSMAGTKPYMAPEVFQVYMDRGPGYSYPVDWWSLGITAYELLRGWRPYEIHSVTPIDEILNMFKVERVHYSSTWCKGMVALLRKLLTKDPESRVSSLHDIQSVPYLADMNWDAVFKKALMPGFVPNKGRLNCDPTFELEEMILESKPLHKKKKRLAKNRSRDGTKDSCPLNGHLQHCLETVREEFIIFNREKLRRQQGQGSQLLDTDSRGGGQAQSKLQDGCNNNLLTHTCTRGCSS
# Summary of the method: as §1
# [9] = target: T9, MERTK (Homo sapiens, UniProt Q12866)
# T9 construct: purchased DiscoveRx Corporation (KinomeScan)
# Summary of the method: as §1
# [10] = target: T10, NEK6 (Homo sapiens, UniProt Q9HC98)
# T10 construct: purchased DiscoveRx Corporation (KinomeScan panel)
# Summary of the method: as §1
# [11] = target: T11, MYLK4 (Homo sapiens, UniProt Q86YV6)
# T11 construct: purchased DiscoveRx Corporation (KinomeScan)
# Summary of the method: as §1
# [12] = target: T12, NEK7 (Homo sapiens, UniProt Q8TDX7)
# T12 construct: purchased DiscoveRx Corporation (KinomeScan panel)
# Summary of the method: as §1
# [13] = target: T13, MST1 (Homo sapiens, UniProt Q13043)
# T13 construct: purchased DiscoveRx Corporation (KinomeScan)
# Summary of the method: as §1
# [14] = target: T14, MET(Y1235D) (Homo sapiens, UniProt P08581, Y1235D)
# T14 construct: purchased DiscoveRx Corporation (KinomeScan)
# Summary of the method: as §1
# [15] = target: T15, MAP4K2 (Homo sapiens, UniProt Q12851)
# T15 construct: purchased DiscoveRx Corporation (KinomeScan)
# Summary of the method: as §1
# [16] = target: T16, CDK5 (Homo sapiens, UniProt Q00535)
# T16 construct: purchased DiscoveRx Corporation (KinomeScan)
# Summary of the method: as §1
# [17] = target: T17, SLK (Homo sapiens, UniProt Q9H2G2)
# T17 construct: purchased DiscoveRx Corporation (KinomeScan)
# Summary of the method: as §1
# [18] = target: T18, RSK3(Kin.Dom.1-N-terminal) (Homo sapiens, UniProt Q15349)
# T18 construct: Kin.Dom.1; purchased DiscoveRx Corporation (KinomeScan)
# Summary of the method: as §1
# [19] = target: T19, CDKL1 (Homo sapiens, UniProt Q00532)
# T19 construct: purchased DiscoveRx Corporation (KinomeScan)
# Summary of the method: as §1
# [20] = target: T20, AKT2 (Homo sapiens, UniProt P31751)
# T20 construct: purchased DiscoveRx Corporation (KinomeScan)
# Summary of the method: as §1
# [21] = target: T21, RET (Homo sapiens, UniProt P07949)
# T21 construct: purchased DiscoveRx Corporation
# Summary of the method: as §1
# [22] = target: T22, AKT1 (Homo sapiens, UniProt P31749)
# T22 construct: purchased DiscoveRx Corporation (KinomeScan)
# Summary of the method: as §1
# [23] = target: T23, RSK3(Kin.Dom.2-C-terminal) (Homo sapiens, UniProt Q15349)
# T23 construct: Kin.Dom.2; purchased DiscoveRx Corporation (KinomeScan)
# T23 sequence (Q15349 415-672 limits assumed): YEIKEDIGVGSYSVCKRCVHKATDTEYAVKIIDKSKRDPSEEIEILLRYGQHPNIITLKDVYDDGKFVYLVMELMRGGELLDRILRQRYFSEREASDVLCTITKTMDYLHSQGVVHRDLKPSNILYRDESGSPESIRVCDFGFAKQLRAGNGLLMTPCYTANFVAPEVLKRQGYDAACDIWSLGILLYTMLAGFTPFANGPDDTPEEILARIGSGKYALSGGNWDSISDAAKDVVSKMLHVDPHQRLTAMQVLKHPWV
# Summary of the method: as §1
# [24] = target: T24, ICK (Homo sapiens, UniProt Q9UPZ9)
# T24 construct: purchased DiscoveRx Corporation (KinomeScan)
# T24 sequence (Q9UPZ9 whole entry): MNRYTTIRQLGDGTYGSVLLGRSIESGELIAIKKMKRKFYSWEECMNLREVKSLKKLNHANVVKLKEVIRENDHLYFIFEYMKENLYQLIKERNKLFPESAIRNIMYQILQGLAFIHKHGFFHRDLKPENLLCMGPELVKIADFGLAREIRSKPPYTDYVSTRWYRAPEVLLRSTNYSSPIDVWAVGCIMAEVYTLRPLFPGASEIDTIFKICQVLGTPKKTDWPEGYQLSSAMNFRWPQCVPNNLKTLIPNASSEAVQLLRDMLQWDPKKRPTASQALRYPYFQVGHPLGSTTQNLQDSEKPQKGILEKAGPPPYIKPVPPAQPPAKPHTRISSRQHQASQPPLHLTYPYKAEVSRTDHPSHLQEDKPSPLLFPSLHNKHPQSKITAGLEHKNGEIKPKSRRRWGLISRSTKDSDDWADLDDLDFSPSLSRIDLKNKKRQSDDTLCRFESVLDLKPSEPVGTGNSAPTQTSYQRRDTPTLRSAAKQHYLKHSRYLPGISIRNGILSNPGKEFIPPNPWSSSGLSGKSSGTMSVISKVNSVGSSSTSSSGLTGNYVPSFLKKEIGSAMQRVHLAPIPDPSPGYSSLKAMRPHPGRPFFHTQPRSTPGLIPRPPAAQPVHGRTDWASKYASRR
# Summary of the method: as §1
# [25] = target: T25, GRK4 (Homo sapiens, UniProt P32298)
# T25 construct: purchased DiscoveRx Corporation (KinomeScan)
# Summary of the method: as §1
# [26] = target: T26, ALK (Homo sapiens, UniProt Q9UM73)
# T26 construct: purchased DiscoveRx Corporation (KinomeScan)
# Summary of the method: as §1
# [27] = target: T27, FLT1 (Homo sapiens, UniProt P17948)
# T27 construct: purchased DiscoveRx Corporation (KinomeScan)
# T27 sequence (P17948 27-1338): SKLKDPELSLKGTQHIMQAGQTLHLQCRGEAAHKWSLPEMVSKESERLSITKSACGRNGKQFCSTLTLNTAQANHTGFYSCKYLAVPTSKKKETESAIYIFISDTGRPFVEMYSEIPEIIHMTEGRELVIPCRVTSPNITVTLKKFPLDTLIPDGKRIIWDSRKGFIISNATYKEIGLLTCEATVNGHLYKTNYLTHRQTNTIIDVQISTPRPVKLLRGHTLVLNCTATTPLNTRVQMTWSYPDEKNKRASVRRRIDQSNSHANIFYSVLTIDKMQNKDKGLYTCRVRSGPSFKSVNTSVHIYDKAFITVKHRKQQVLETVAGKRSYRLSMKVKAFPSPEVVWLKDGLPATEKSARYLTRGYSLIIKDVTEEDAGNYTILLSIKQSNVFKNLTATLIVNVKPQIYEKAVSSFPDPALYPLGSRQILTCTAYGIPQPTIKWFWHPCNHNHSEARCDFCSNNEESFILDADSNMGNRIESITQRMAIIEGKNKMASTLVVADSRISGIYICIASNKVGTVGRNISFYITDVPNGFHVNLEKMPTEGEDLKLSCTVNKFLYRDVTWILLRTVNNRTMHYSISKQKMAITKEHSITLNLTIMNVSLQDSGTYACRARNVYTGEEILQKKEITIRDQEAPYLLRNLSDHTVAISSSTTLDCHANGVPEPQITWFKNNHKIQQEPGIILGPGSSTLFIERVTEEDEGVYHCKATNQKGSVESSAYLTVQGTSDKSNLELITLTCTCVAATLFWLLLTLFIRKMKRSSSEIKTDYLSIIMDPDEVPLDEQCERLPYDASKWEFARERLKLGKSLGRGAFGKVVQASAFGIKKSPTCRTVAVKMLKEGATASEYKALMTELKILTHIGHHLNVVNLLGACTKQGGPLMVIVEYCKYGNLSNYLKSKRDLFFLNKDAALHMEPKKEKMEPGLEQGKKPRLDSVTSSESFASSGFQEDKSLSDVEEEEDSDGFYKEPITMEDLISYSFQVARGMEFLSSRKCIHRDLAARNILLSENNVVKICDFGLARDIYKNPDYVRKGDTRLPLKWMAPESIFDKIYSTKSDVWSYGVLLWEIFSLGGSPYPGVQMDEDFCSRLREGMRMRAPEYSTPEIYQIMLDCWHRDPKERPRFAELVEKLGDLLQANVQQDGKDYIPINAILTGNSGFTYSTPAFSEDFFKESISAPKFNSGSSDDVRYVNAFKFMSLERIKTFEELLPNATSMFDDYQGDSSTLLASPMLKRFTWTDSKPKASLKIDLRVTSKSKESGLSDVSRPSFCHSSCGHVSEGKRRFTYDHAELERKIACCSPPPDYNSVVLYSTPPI
# Summary of the method: as §1
# [28] = target: T28, CSNK1D (Homo sapiens, UniProt P48730)
# T28 construct: purchased DiscoveRx Corporation (KinomeScan)
# Summary of the method: as §1
# [29] = target: T29, PLK2 (Homo sapiens, UniProt Q9NYY3)
# T29 construct: purchased DiscoveRx Corporation (KinomeScan)
# Summary of the method: as §1
# [30] = target: T30, ROS1 (Homo sapiens, UniProt P08922)
# T30 construct: purchased DiscoveRx Corporation
# Summary of the method: as §1
# [31] = target: T31, MAP4K4 (Homo sapiens, UniProt O95819)
# T31 construct: purchased DiscoveRx Corporation (KinomeScan)
# Summary of the method: as §1
# [32] = target: T32, EPHB2 (Homo sapiens, UniProt P29323)
# T32 construct: purchased DiscoveRx Corporation (KinomeScan)
# Summary of the method: as §1
# [33] = target: T33, TGFBR2 (Homo sapiens, UniProt P37173)
# T33 construct: purchased DiscoveRx Corporation (KinomeScan)
# T33 sequence (P37173 23-567): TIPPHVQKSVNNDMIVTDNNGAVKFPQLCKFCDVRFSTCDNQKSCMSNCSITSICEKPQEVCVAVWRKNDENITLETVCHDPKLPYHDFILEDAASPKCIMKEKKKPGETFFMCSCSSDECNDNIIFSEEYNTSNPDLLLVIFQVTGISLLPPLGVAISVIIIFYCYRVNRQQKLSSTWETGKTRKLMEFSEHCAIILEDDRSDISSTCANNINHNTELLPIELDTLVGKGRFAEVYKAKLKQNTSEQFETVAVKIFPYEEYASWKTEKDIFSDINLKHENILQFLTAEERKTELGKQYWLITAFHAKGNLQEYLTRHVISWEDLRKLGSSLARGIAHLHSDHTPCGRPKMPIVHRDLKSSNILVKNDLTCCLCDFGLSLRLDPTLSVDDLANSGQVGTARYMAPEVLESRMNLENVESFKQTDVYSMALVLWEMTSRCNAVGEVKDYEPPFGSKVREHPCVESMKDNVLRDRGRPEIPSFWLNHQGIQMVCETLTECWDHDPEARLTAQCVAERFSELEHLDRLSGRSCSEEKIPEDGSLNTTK
# Summary of the method: as §1
# [34] = target: T34, ABL1-nonphosphorylated (Homo sapiens, UniProt P00519)
# T34 construct: purchased DiscoveRx Corporation (KinomeScan)
# Summary of the method: as §1
# [35] = target: T35, LCK (Homo sapiens, UniProt P06239)
# T35 construct: purchased DiscoveRx Corporation (KinomeScan)
# Summary of the method: as §1
# T1 sequence (P42336 whole entry Q546K): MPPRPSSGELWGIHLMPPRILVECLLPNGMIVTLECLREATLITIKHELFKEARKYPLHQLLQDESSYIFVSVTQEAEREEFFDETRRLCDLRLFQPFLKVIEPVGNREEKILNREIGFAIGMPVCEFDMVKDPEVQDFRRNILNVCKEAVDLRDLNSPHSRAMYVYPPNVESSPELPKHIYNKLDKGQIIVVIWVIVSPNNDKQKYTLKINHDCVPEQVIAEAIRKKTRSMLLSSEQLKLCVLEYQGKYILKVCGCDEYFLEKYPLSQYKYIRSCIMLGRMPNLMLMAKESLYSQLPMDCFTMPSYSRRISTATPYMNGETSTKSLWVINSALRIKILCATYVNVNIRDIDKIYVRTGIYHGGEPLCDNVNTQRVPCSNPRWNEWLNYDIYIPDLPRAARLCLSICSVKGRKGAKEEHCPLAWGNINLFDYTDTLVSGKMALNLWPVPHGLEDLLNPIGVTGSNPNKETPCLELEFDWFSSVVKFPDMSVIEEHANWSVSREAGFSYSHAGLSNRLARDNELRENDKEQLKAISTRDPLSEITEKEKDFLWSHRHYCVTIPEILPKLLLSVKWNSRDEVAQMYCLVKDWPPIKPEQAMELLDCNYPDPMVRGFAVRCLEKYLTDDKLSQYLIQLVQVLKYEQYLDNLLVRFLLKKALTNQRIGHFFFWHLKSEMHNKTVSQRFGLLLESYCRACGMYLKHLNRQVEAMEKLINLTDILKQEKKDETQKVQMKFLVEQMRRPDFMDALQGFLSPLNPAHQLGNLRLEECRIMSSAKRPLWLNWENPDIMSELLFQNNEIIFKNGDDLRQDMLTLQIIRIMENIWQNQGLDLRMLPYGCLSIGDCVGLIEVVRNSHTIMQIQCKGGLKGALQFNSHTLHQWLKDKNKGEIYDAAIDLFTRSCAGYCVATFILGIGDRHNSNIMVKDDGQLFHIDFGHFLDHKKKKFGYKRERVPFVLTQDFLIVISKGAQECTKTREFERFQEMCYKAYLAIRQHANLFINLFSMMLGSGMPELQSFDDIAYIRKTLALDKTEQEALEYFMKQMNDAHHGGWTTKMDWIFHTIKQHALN
compound,measurement,setting,value
"CCOP(=O)(CN1CCC(COc2cc3nccc(Oc4ccc(NC(=O)C5(C(=O)Nc6ccc(F)cc6)CC5)cc4F)c3cc2OC)CC1)OCC [Example 10, N1-[4-[[7-[[1-(diethoxyphosphorylmethyl)-4-piperidinyl]methoxyl]-6-methoxyl-4-quinolyl]oxyl]-3-fluorophenyl]-N1′-(4-fluorophenyl)cyclopropane-1,1-dicarboxamide]",% Ctrl@1000 nM,[1],100 % Ctrl
same,% Ctrl@1000 nM,[2],80 % Ctrl
same,% Ctrl@1000 nM,[3],100 % Ctrl
same,% Ctrl@1000 nM,[4],100 % Ctrl
same,% Ctrl@1000 nM,[5],100 % Ctrl
same,% Ctrl@1000 nM,[6],100 % Ctrl
same,% Ctrl@1000 nM,[7],100 % Ctrl
same,% Ctrl@1000 nM,[8],100 % Ctrl
same,% Ctrl@1000 nM,[9],2.1 % Ctrl
same,% Ctrl@1000 nM,[10],100 % Ctrl
same,% Ctrl@1000 nM,[11],100 % Ctrl
same,% Ctrl@1000 nM,[12],100 % Ctrl
same,% Ctrl@1000 nM,[13],100 % Ctrl
same,% Ctrl@1000 nM,[14],4.4 % Ctrl
same,% Ctrl@1000 nM,[15],100 % Ctrl
same,% Ctrl@1000 nM,[16],100 % Ctrl
same,% Ctrl@1000 nM,[17],7.4 % Ctrl
same,% Ctrl@1000 nM,[18],100 % Ctrl
same,% Ctrl@1000 nM,[19],100 % Ctrl
same,% Ctrl@1000 nM,[20],100 % Ctrl
same,% Ctrl@1000 nM,[21],0.1 % Ctrl
same,% Ctrl@1000 nM,[22],100 % Ctrl
same,% Ctrl@1000 nM,[23],100 % Ctrl
same,% Ctrl@1000 nM,[24],95 % Ctrl
same,% Ctrl@1000 nM,[25],78 % Ctrl
same,% Ctrl@1000 nM,[26],15 % Ctrl
same,% Ctrl@1000 nM,[27],7.3 % Ctrl
same,% Ctrl@1000 nM,[28],100 % Ctrl
same,% Ctrl@1000 nM,[29],83 % Ctrl
same,% Ctrl@1000 nM,[30],29 % Ctrl
same,% Ctrl@1000 nM,[31],100 % Ctrl
same,% Ctrl@1000 nM,[32],2.8 % Ctrl
same,% Ctrl@1000 nM,[33],100 % Ctrl
same,% Ctrl@1000 nM,[34],1.8 % Ctrl
same,% Ctrl@1000 nM,[35],2.2 % Ctrl
